# From US20230293488A1, “COMPOSITIONS AND METHODS OF USE OF ANTIBACTERIAL DRUG COMBINATIONS” (priority 2015, published 2023)
# Values joined by “and” are separate entries in the source; they are usually repeats but may differ in a detail not shown here. Equal entries are not always repeated. “Also recorded” adds a separate entry of the source.
# Experiments:
# [1] = system: MRSA COL pbp2a/mecA antisense (AS) strain; assay: Xylose-inducible antisense-RNA strain susceptibility (PBP2a repression); assay type: cell-based, Staphylococcus aureus; details: targeted repression of PBP2a
# Description: (§1) We confirmed the targets of the constituents of ME/PI/TZ by reducing the expression of PBP1, PBP2, PBP2a or PBP3 using a xylose-inducible antisense-RNA strategy in the MRSA COL strain background^49. When expression levels of PBP2a were attenuated, the strain behaved as a methicillin-susceptible S. aureus and was sensitized to all tested β-lactams (FIG. 6A-C).
# [2] = system: MRSA COL pbpA antisense (AS) strain; assay: Xylose-inducible antisense-RNA strain susceptibility (PBP1 repression); assay type: cell-based, Staphylococcus aureus; details: targeted repression of PBP1
# Description: as §1
# [3] = system: MRSA N315; assay: Neutropenic mouse peritonitis model of MRSA infection; assay type: in vivo, mice; details: for Result (Alive/Dead) / Result (survivors per group) / Bacterial detection results: Plated: 67 mg/kg (of each) every 8 hrs SC; for Result (Alive/Dead) / Result (survivors per group): 6 doses; for Result (Alive/Dead) / Bacterial detection results: Plated: one line per mouse; for Result (survivors per group): six days post-infection; for Bacterial detection results: Plated: cheek bleed 11 h post-infection, ~100 uL blood plated, 67 mg/kg; for mice that succumbed to the infection: most within 48 h, 67 mg/kg (of each)
# Description: In vivo mouse model of MRSA infection: Animals. Outbred ICR female mice (6-8 weeks old, 17-25 g body weight; Harlan Laboratories, Inc., Indianapolis, IN, USA) were used. Mice were given Teklad 2019 Extruded Rodent Diet (Harlan Laboratories, Inc., Indianapolis, IN, USA) and water ad libitum. Mice were maintained in polycarbonate shoebox cages containing corncob (The Andersons, Inc., Maumee, OH, USA) and Alpha-dri (Shepherd Specialty Papers, Inc., Richland, MI, USA) bedding under 12-h light/12-h dark cycle at 22±1° C. All procedures involving animals were approved by the University of Notre Dame Institutional Animal Care and Use Committee.
# Neutropenic mouse peritonitis model of MRSA infection. Doses of cyclophosphamide (100 μl of 50 mg/ml in 0.9% saline corresponding to 200 mg/kg; Alfa Aesar, Ward Hill, MA, USA) were given intraperitoneally (IP) at 4 days and 1 day prior to infection. The S. strain N315 was streaked onto Brain-Heart Infusion (BHI; Becton Dickson and Company, Sparks, MD, USA) agar and grown overnight at 36° C. The MRSA N315 bacterial inoculum was adjusted to approximately 1×10^8 CFU/ml (corresponding to OD540=0.5), then diluted to give 2×10^7CFU/ml. A 10% porcine mucin (Sigma-Aldrich, St. Louis, MO, USA) suspension was prepared and adjusted to pH 7. Immediately prior to infection, the bacterial inocula were diluted 1:1 with 10% mucin to a final concentration of 1×10^7CFU/ml in 5% mucin. The mice were then infected IP with 0.5 ml of this inoculum. In vivo dosing of compounds in mice was compared with mean or range peak human plasma concentrations of studied β-lactams^44,46,47,62,63.
# Antibiotic preparation. Meropenem was obtained from AK Scientific, Inc. (Union City, CA, USA), piperacillin and tazobactam were obtained from Sigma-Aldrich Co. (St. Louis, MO, USA). Linezolid (CAS 165800-03-3) was obtained from AmplaChem (Carmel, IN, USA). Antibiotics were dissolved at a concentration of 16.67 mg/ml in 30% DMSO/30% propylene glycol/40% water. Linezolid was used as positive control and was prepared at 7.5 mg/ml. Vehicle (30% DMSO/30% propylene glycol/40% water) was included as negative control. The dosing formulations were sterilized by passing through 0.2 μm filter prior to injection.
# Bacterial isolation from blood. Blood samples were checked for bacterial growth by plating and liquid culture. Whole blood (100 μl, three samples per group) was spread onto Brain-Heart Infusion (BHI) agar plates and incubated at 36° C. overnight. Colonies were counted and three colonies were selected, grown overnight in liquid BHI culture at 36° C., then mixed 1:1 with 30% LB-glycerol and stored at −80° C. The remaining three blood samples of each group (50 μl) was added to 5 ml BHI broth and incubated overnight at 36° C. When growth was noted, cultures were mixed 1:1 with 30% LB-glycerol and stored at −80° C.
# Statistical Analyses: Data for minimal inhibitory concentrations (MICs) are derived from triplicate measurements. Adaptation data are taken from two replicate experiments for each drug combination condition. Data for qRT-PCR expression profiling are derived from three replicate experiments taken from three biological replicates each, with standard error of measurement calculated. Mice were treated in groups of six, and growth determination of bacteria determined via plate and broth culture in triplicate. Fisher's Exact test with Bonferroni correction was used for 8 independent tests (comparing each treatment to 610 vehicle).
# [4] = system: MRSA COL pbp2 antisense (AS) strain; assay: Xylose-inducible antisense-RNA strain susceptibility (PBP2 repression); assay type: cell-based, Staphylococcus aureus; details: targeted repression of PBP2
# Description: as §1
# [5] = system: MRSA N315; assay: Adaptation and cross-resistance assays (11-day passage); assay type: cell-based, Staphylococcus aureus
# Protocol: Adaptation and Cross-resistance Assays: 414 MRSA N315 was grown in 150 μl/well of CAMHB with constant shaking at 37° C. and passaged over 11 days in identical 96-well plates containing replicate threefold dilutions of ME/PI/TZ, ME/PI, ME/TZ, PI/TZ, ME, PI, and TZ. Top concentrations of drug combinations were 33.3 μg/ml for each component, while top concentrations for single drugs was 100 μg/ml. To test for cell viability, at the end of the assay on day 11, all wells from the plate were pinned with a sterile 96-pin replicator and transferred to CAMHB only. After passage, plates were filled 1:1 with 30% CAMHB/glycerol and frozen at −80° C. for later analysis.
# Growth rate of isolates over passages in each condition was determined by linear best-fit of logarithm-converted exponential growth phase. […] Adapted isolates were retrospectively chosen from each combination or single compound in wells showing an increase in MIC or growth rate, frozen isolates were streaked out on agar plates to obtain single colonies, re-grown in broth conditions identical to those in which they grew originally, and then re-inoculated in sterile 96-well plates identical to the original 11-day 431 plates.
Structure (SMILES),susceptibility under xylose induction [1],susceptibility under xylose induction [2],Result (Alive/Dead) [3],Result (survivors per group) [3],Bacterial detection results: Plated [3],mice that succumbed to the infection [3],susceptibility under xylose induction [4],collateral effect on susceptibility ([5]; MRSA N315 after prior exposure to PI/TZ),collateral effect on susceptibility ([5]; MRSA N315 after prior exposure/adaptation to piperacillin),collateral effect on susceptibility ([5]; MRSA N315 after prior exposure to ME/TZ),collateral effect on susceptibility ([5]; MRSA N315 after prior exposure to tazobactam),collateral effect on susceptibility ([5]; MRSA N315 after prior exposure/adaptation to meropenem)
C[C@@H](O)[C@H]1C(=O)N2C(C(=O)O)=C(S[C@@H]3CN[C@H](C(=O)N(C)C)C3)[C@H](C)[C@H]12 [Meropenem],increased susceptibility,increased susceptibility; also recorded: larger zones of inhibition,Alive (4×) and Dead (2×),4/6,Plated: 11 colonies; also recorded: Plated: 3 colonies,several mice,increased susceptibility; also recorded: increased effectiveness,sensitized,sensitizes; also recorded: strong reciprocal collateral sensitivity,,,
CCN1CCN(C(=O)N[C@@H](C(=O)N[C@@H]2C(=O)N3[C@@H]2SC(C)(C)[C@@H]3C(=O)O)c2ccccc2)C(=O)C1=O [Piperacillin],Increased susceptibility,increased susceptibility,Dead,0/6,Plated: 40 colonies,all mice,increased susceptibility; also recorded: increased effectiveness,,,strong reciprocal collateral sensitivity,Collateral sensitivity,strong reciprocal collateral sensitivity
